Experimental data published in patent US12577231B2, “Androgen receptor PROTACS” (GlaxoSmithKline Intellectual Property Development Limited, priority 2023, dated 2026).

What follows are compounds tested against T1, Androgen Receptor protein in human LnCaP cells (Homo sapiens, UniProt P10275, T878A) (assay: Androgen Receptor Degradation Assay (Nano-Glo HiBiT, LnCaP cells)). Conditions: 18 h, HiBiT-tagged AR LnCaP cells, 18 h incubation, fitted curve asymptote maximum of degradation, read-out: mean asymptote max.
T1 construct: the AR gene was modified, using CRISPR/Cas9 editing, so the expressed AR protein included an 11 amino acid HiBiT tag; endogenous in cells; host or cells: clonal LnCaP derived cell line, endogenous AR gene edited by CRISPR/Cas9
T1 sequence (P10275 1-920 T878A): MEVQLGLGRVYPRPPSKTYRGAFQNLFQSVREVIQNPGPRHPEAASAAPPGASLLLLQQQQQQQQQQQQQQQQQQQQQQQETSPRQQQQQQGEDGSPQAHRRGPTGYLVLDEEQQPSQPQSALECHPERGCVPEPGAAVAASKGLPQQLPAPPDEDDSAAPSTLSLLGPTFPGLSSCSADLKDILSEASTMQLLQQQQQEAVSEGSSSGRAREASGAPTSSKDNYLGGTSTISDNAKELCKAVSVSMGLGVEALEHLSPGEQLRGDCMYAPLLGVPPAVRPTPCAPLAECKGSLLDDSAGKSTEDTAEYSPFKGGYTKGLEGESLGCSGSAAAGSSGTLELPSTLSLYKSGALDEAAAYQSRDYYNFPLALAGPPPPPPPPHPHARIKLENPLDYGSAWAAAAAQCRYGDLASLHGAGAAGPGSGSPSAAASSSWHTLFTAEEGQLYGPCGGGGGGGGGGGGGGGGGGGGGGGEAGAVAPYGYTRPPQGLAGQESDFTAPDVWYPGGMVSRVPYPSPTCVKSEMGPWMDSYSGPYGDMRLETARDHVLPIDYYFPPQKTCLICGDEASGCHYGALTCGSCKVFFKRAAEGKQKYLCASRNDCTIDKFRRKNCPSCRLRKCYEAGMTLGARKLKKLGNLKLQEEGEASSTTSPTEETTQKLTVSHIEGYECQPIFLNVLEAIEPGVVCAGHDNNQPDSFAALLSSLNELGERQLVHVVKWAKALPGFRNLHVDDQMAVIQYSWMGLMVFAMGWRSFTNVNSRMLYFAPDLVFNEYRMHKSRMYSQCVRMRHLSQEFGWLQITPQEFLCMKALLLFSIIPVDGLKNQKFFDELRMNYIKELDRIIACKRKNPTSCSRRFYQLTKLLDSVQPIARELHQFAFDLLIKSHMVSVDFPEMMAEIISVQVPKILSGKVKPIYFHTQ
Type: cell-based
In short: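 LnCaP cells with CRISPR-knocked-in N-terminal HiBiT tag on endogenous AR, 10,000 cells/well, treated 18 h at 37 °C with PROTACs in an 11-point, 3-fold dilution series. AR quantified by lytic HiBiT luminescence, normalised to DMSO (0%) and cell-free (100%) controls. DC50 from 4-parameter fit (relative) or interpolation (absolute); Dmax is maximal observed degradation.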

Dmax, ≥ 50%:
CC1(C)[C@H](NC(=O)c2ccc(N3CCC(CN4CCC(n5ncc6c(N7CCC(=O)NC7=O)cccc65)CC4)CC3)c(Cl)c2)C(C)(C)[C@H]1Oc1ccc(C#N)c2ncccc12 [Example 44, 3-Chloro-N-((1r,3r)-3-((8-cyanoquinolin-5-yl)oxy)-2,2,4,4-tetramethylcyclobutyl)-4-(4-((4-(4-(2,4-dioxotetrahydropyrimidin-1(2H)-yl)-1H-indazol-1-yl)piperidin-1-yl)methyl)piperidin-1-yl)benzamide]
CC1(C)[C@H](NC(=O)c2ccc(N3CCC(CN4CCC(n5ccc6c(N7CCC(=O)NC7=O)cc(F)cc65)CC4)CC3)c(F)c2)C(C)(C)[C@H]1Oc1ccc(C#N)c2ncccc12 [Example 32, N-((1r,3r)-3-((8-Cyanoquinolin-5-yl)oxy)-2,2,4,4-tetramethylcyclobutyl)-4-(4-((4-(4-(2,4-dioxotetrahydropyrimidin-1(2H)-yl)-6-fluoro-1H-indol-1-yl)piperidin-1-yl)methyl)piperidin-1-yl)-3-fluorobenzamide]
CC1(C)[C@H](NC(=O)c2ccc(N3CCC(CN4CC[C@@H](n5ncc6c(N7CCC(=O)NC7=O)cccc65)C4)CC3)c(F)c2)C(C)(C)[C@H]1Oc1ccc(C#N)c2ncccc12 [Example 36, N-((1r,3r)-3-((8-Cyanoquinolin-5-yl)oxy)-2,2,4,4-tetramethylcyclobutyl)-4-(4-(((R)-3-(4-(2,4-dioxotetrahydropyrimidin-1(2H)-yl)-1H-indazol-1-yl)pyrrolidin-1-yl)methyl)piperidin-1-yl)-3-fluorobenzamide]
CC1(C)[C@H](NC(=O)c2ccc(N3CC[C@@H](CN4CCC(n5ncc6c(N7CCC(=O)NC7=O)cccc65)CC4)C3)c(F)c2)C(C)(C)[C@H]1Oc1ccc(C#N)c2ncccc12 [Example 33, N-((1r,3S)-3-((8-Cyanoquinolin-5-yl)oxy)-2,2,4,4-tetramethylcyclobutyl)-4-((S)-3-((4-(4-(2,4-dioxotetrahydropyrimidin-1(2H)-yl)-1H-indazol-1-yl)piperidin-1-yl)methyl)pyrrolidin-1-yl)-3-fluorobenzamide]
COc1cc(O[C@H]2C(C)(C)[C@H](NC(=O)c3ccc(N4CCC(CN5CCC(n6ncc7c(N8CCC(=O)NC8=O)cccc76)CC5)CC4)cc3)C2(C)C)ccc1C#N [Example 15, N-((1r,3r)-3-(4-Cyano-3-methoxyphenoxy)-2,2,4,4-tetramethylcyclobutyl)-4-(4-((4-(4-(2,4-dioxotetrahydropyrimidin-1(2H)-yl)-1H-indazol-1-yl)piperidin-1-yl)methyl)piperidin-1-yl)benzamide]
